From the supplement of paper PMC10627819

Columns and labels:
S. pneumoniae D39V [1] = test: fitness (endpoint OD595 vs no drug) (fraction); higher = more growth
In short: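 Fitness was defined as the optical density at the transition into stationary phase relative to the robust mean of no-drug control wells. Values were capped at 1. Cultures were started at OD595 0.01 in 384-well plates (30 µl, or 55 µl for S. pneumoniae) in TSB, LB Lennox or CY at 37 °C. OD595 was recorded every 30 min over 14 h, with the first reading subtracted as background.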

S. aureus DSM 20231 = test: Bliss interaction score (quartile over a dose matrix) (fitness difference); higher = more antagonism (negative = synergy)
In short: (§1)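 Combination data were used to infer fitness under each single drug. Fitness is the OD595 at entry into stationary phase divided by the robust mean of the plate's no-drug wells, with a cap of 1. The Bliss score is the observed minus the expected product fitness, summarised by quartiles over technical, biological and donor/recipient replicates.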

S. aureus Newman = test: as above
In short: as §1

B. subtilis 168 = test: as above
In short: as §1

S. pneumoniae D39V [2] = test: as above
In short: as §1
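Wherever Bliss interaction score (quartile over a dose matrix) is given: first quartile when negative (synergy) and third quartile when positive (antagonism).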

C[C@@H](O)[C@H]1C(=O)N2C(C(=O)O)=C(SCCNC=N)C[C@H]12 [Imipenem] + Cc1cc(NS(=O)(=O)c2ccc(N)cc2)no1 [Sulfamethoxazol]
fitness, S. pneumoniae D39V [1], one replicate
Conditions | first compound 0.005 µg/mL | first compound 0.01 µg/mL | first compound 0.02 µg/mL
partner 1 µg/mL | 0.993 | 0.998 | 0.959
partner 2 µg/mL | 0.957 | 0.924 | 0.982
partner 4 µg/mL | 0.879 | 0.856 | 0.859

fitness, S. pneumoniae D39V [1]
Conditions | first compound 0.0065 µg/mL | first compound 0.013 µg/mL | first compound 0.026 µg/mL
partner 1 µg/mL | 0.96 | 0.923 | 0.82
partner 2 µg/mL | 0.976 | 0.932 | 0.925
partner 4 µg/mL | 0.976 | 0.941 | 0.917

Conditions | Bliss interaction score
B. subtilis 168 | 0.0891
S. aureus DSM 20231 | -0.0317
S. aureus Newman | -0.0488
S. pneumoniae D39V [2] | 0.066

C[C@@H](O)[C@H]1C(=O)N2C(C(=O)O)=C(SCCNC=N)C[C@H]12 [Imipenem] + Cc1ncc([N+](=O)[O-])n1CCO [Metronidazole]
fitness, S. pneumoniae D39V [1]
Conditions | first compound 0.005 µg/mL | first compound 0.0065 µg/mL | first compound 0.01 µg/mL | first compound 0.013 µg/mL | first compound 0.02 µg/mL | first compound 0.026 µg/mL
partner 1.073 µg/mL | 0.961 | – | 0.945 | – | 0.919 | –
partner 1.25 µg/mL | – | 0.991 | – | 0.995 | – | 0.985
partner 2.145 µg/mL | 0.872 | – | 0.737 | – | 0.886 | –
partner 2.5 µg/mL | – | 0.988 | – | ≥ 1 | – | 0.984
partner 4.29 µg/mL | 0.908 | – | 0.903 | – | 0.903 | –
partner 5 µg/mL | – | 0.99 | – | 0.969 | – | 0.961

Conditions | Bliss interaction score
B. subtilis 168 | 0.0502
S. aureus DSM 20231 | 0.0365
S. aureus Newman | -0.0547
S. pneumoniae D39V [2] | 0.0768

C[C@@H](O)[C@H]1C(=O)N2C(C(=O)O)=C(SCCNC=N)C[C@H]12 [Imipenem] + Cc1onc(-c2ccccc2)c1C(=O)N[C@@H]1C(=O)N2[C@@H]1SC(C)(C)[C@@H]2C(=O)O [Oxacillin]
fitness, S. pneumoniae D39V [1]
Conditions | first compound 0.005 µg/mL | first compound 0.0065 µg/mL | first compound 0.01 µg/mL | first compound 0.013 µg/mL | first compound 0.02 µg/mL | first compound 0.026 µg/mL
partner 0.01 µg/mL | 0.963 | 0.968 | 0.983 | 0.996 | 0.95 | 0.956
partner 0.02 µg/mL | 0.92 | 0.845 | 0.933 | 0.902 | 0.905 | 0.812
partner 0.04 µg/mL | 0.524 | 0.0658 | 0.511 | 0.171 | 0.468 | 0.109

Conditions | Bliss interaction score
B. subtilis 168 | -0.048
S. aureus DSM 20231 | -0.0527
S. aureus Newman | 0.0474
S. pneumoniae D39V [2] | 0.0736

C[C@@H](O)[C@H]1C(=O)N2C(C(=O)O)=C(SCCNC=N)C[C@H]12 [Imipenem] + Clc1ccc(COC(Cn2ccnc2)c2ccc(Cl)cc2Cl)c(Cl)c1 [Miconazole]
fitness, S. pneumoniae D39V [1]
Conditions | first compound 0.005 µg/mL | first compound 0.0065 µg/mL | first compound 0.01 µg/mL | first compound 0.013 µg/mL | first compound 0.02 µg/mL | first compound 0.026 µg/mL
partner 1.073 µg/mL | ≥ 1 | – | ≥ 1 | – | ≥ 1 | –
partner 1.25 µg/mL | – | 0.877 | – | 0.869 | – | 0.72
partner 2.145 µg/mL | ≥ 1 | – | 0.998 | – | 0.99 | –
partner 2.5 µg/mL | – | 0.892 | – | 0.907 | – | 0.761
partner 4.29 µg/mL | 0.955 | – | 0.95 | – | 0.882 | –
partner 5 µg/mL | – | 0.908 | – | 0.947 | – | 0.886

Conditions | Bliss interaction score
B. subtilis 168 | -0.0815
S. aureus DSM 20231 | 0.0412
S. aureus Newman | -0.0307
S. pneumoniae D39V [2] | 0.0759

C[C@@H](O)[C@H]1C(=O)N2C(C(=O)O)=C(SCCNC=N)C[C@H]12 [Imipenem] + Cn1nnc(-c2ccc(-c3ccc(N4C[C@H](CO)OC4=O)cc3F)cn2)n1 [Tedizolid]
fitness, S. pneumoniae D39V [1]
Conditions | first compound 0.005 µg/mL | first compound 0.0065 µg/mL | first compound 0.01 µg/mL | first compound 0.013 µg/mL | first compound 0.02 µg/mL | first compound 0.026 µg/mL
partner 0.03125 µg/mL | 0.922 | – | 0.917 | – | 0.913 | –
partner 0.0625 µg/mL | 0.958 | – | 0.949 | – | 0.993 | –
partner 0.125 µg/mL | 0.829 | 0.68 | 0.795 | 0.758 | 0.82 | 0.553
partner 0.25 µg/mL | – | 0.553 | – | 0.607 | – | 0.578
partner 0.5 µg/mL | – | 0.125 | – | 0.161 | – | 0.151

Conditions | Bliss interaction score
B. subtilis 168 | 0.21
S. aureus DSM 20231 | -0.0424
S. aureus Newman | 0.0821
S. pneumoniae D39V [2] | -0.17

C[C@@H](O)[C@H]1C(=O)N2C(C(=O)O)=C(SCCNC=N)C[C@H]12 [Imipenem] + O=C1CN(/N=C/c2ccc([N+](=O)[O-])o2)C(=O)N1 [Nitrofurantoin]
fitness, S. pneumoniae D39V [1]
Conditions | first compound 0.005 µg/mL | first compound 0.0065 µg/mL | first compound 0.01 µg/mL | first compound 0.013 µg/mL | first compound 0.02 µg/mL | first compound 0.026 µg/mL
partner 1.285 µg/mL | 0.947 | – | 0.967 | – | 0.97 | –
partner 2 µg/mL | – | 0.931 | – | 0.882 | – | 0.842
partner 2.57 µg/mL | 0.946 | – | 0.944 | – | 0.955 | –
partner 4 µg/mL | – | 0.912 | – | 0.914 | – | 0.804
partner 8 µg/mL | – | 0.763 | – | 0.728 | – | 0.72

S. pneumoniae D39V [1], partner 5.14 µg/mL, one replicate
Conditions | fitness
first compound 0.005 µg/mL | 0.887
first compound 0.01 µg/mL | 0.941
first compound 0.02 µg/mL | 0.928

Conditions | Bliss interaction score
B. subtilis 168 | 0.0986
S. aureus DSM 20231 | 0.0253
S. aureus Newman | -0.0377
S. pneumoniae D39V [2] | 0.049
